Results reported in patent US6710075B2, “Therapeutic compounds and methods” (The Government of the State of Sarawak, Malaysia, priority 2000, dated 2004).
Read-outs that look alike come from different tables or passages of the source.

Experiments:
Type in all cases: cell-based, human
THP-1 cells [1] = experiment: Protein synthesis, [14C]-leucine uptake, THP-1 cells; conditions: 48 hours
From the text: (§1) (a) Compounds A and B were identified from a bark sample of Aglaia leptantha through their ability to inhibit production of Tumour Necrosis Factor-α (TNF-α) by THP-1 human promonocytic leukemia cells (Tsuchiya, et al, Int. J. Cancer, 1980, 26(2):171-6) activated with lipopolysaccharide (LPS). Table 4 summarises the results comparing the activity of Compounds A and B for inhibition of TNF-α production to their effects on general cell metabolism measured using WST-1 reduction, DNA synthesis and protein synthesis assays for THP-1 cells. […] For comparison, the effects of Compounds A and B on A549 lung epithelial carcinoma cells (Leiber et al, Int. J. Cancer, 1976, 17(1)-62-70) were also measured and the data is also included in Table 4.

A549 cells [2] = experiment: Protein synthesis, [14C]-leucine uptake, A549 cells; conditions: Homo sapiens, A549, 72 h
From the text: as §1

A549 cells [3] = experiment: DNA synthesis, [14C]-thymidine uptake, A549 cells; conditions: Homo sapiens, A549, 72 h
From the text: as §1

THP-1 cells [4] = experiment: Acute general protein biosynthesis inhibition, [14C] leucine incorporation, THP-1 cells; conditions: 1 hour pretreatment + 2 hours label, read-out: IC50 Protein synthesis
K562 = experiment: Cytotoxic activity, sub-diploid DNA content by flow cytometry (propidium iodide)
Procedure: (§2) (b) Compound A was assessed for cytotoxic and cytostatic activity against a panel of cell lines derived from a variety of human tumour types in addition to THP-1 and A549 cells (Table 5). These included K562 leukemic cells (Lozzio and Lozzio, 1975, Blood 45:321-34), PC3 prostate tumour cells (Kaighn et al., 1979, Invest. Urol. 17:16-23) and SF268 glioblastoma cells (Westphal et al, 1985, Biochem. Biophys. Res. Commun., 132:284-9). […] However, the cytotoxic potency of Compound A increased dramatically after 6 days of culture for the K562, A549 and SF268 cells.

PC3 = experiment: as above; conditions: Homo sapiens
Procedure: as §2

SF268 = experiment: as above; conditions: Homo sapiens, SF-268, 72 h, SF268, 3 days; read-out: LC50 (3 day cultures)
Procedure: as §2

A549 cells [5] = experiment: Reversibility of cytostatic effect in A549 cells after removal of compound; conditions: A549, 10 nM for 5 days, then 4 days without compound
Procedure: A549 cells were seeded at ˜10,000 cells/well and cultured in the presence of the indicted concentrations of Compound A or paclitaxel and the viable cell numbers determined by haemocytometer counting of trypan blue stained cells at the various times. On day 5 some of the cells were washed, resuspended in fresh medium lacking the various treatments and cultured for another 4 days prior to counting.
The reversibility of the effects of Compound A was determined. For this, A549 cells remained untreated or were cultured in the presence of various concentrations of Compound A or with paclitaxel for 5 days prior to removal of the compounds and the cells cultured for a further 4 days prior to determining cell number (FIG. 6). […] The effects of treatments which were deleterious to the cells, such as higher concentrations of Compound A or the presence of paclitaxel, were not reversed upon their removal.

COC(=O)[C@H]1[C@@H](O)[C@@]2(O)c3c(OC)cc(OC4OC(C(O)CO)COC4OC)cc3O[C@@]2(c2ccc(OC)cc2)[C@@H]1c1ccccc1 (single isomer, unassigned) [Compound A]
IC50 (THP-1 cells [1]): 60 nM
IC50 (A549 cells [2]): 20 nM
IC50 (A549 cells [3]): 7 nM
IC50 (THP-1 cells [4]; Homo sapiens, THP-1, THP-1 cells): ~30 nM
IC50 (THP-1 cells [4]; THP-1 cells): 27 nM
CC50 (K562; Homo sapiens, K562, 72 h, K562, 3 days, read-out: LC50 (3 day cultures)): > 1000 nM
CC50 (K562; Homo sapiens, K562, 144 h, K562, 6 days, read-out: LC50 (6 day cultures)): 10 nM
CC50 (K562; K562, 6 days, read-out: LC50 (6 day cultures)): 12 nM
CC50 (PC3; PC-3, 72 h, PC3, 3 days, read-out: LC50 (3 day cultures)): 18 nM
CC50 (PC3; PC-3, 144 h, PC3, 6 days, read-out: LC50 (6 day cultures)): 12 nM
CC50 (SF268): 461 nM
cell number after removal of compound (A549 cells [5]): over a five-fold increase in cell number
population doublings after removal of compound (A549 cells [5]): 2-3
